Each structure is given as a SMILES string. Read-outs that look alike come from different tables or passages of the source.

The target of experiment [1] is T1, farnesyl protein transferase (FPT) (Rattus norvegicus, UniProt Q02293+Q04631).
T1 construct: were partially purified from rat brain by ammonium sulfate fractionation followed by Q-Sepharose; from tissue; host or cells: rat brain
As to the kind of experiment: In vitro enzyme assay: inhibition of farnesyl protein transferase. It counts as biochemical. As for the experimental part: 1. In vitro enzyme assays: Inhibition of farnesyl protein transferase and geranylgeranyl protein transferase.
Human farnesyl protein transferase was also expressed in E. coli, using cDNA clones encoding both the α and β subunits. […] Two forms of val^12-Ha-Ras protein were prepared as substrates for these enzymes, differing in their carboxy terminal sequence. One form terminated in cysteine-valine-leucine-serine (Ras-CVLS) the other in cystein-valine-leucine-leucine (Ras-CVLL). Ras-CVLS is a substrate for the farnesyl protein transferase while Ras-CVLL is a substrate for geranylgeranyl protein transferase I. The cDNAs encoding these proteins were constructed so that the proteins contain an amino-terminal extension of 6 histidine residues. Both proteins were expressed in Escherichia coli and purified using metal chelate affinity chromatography. The radiolabelled isoprenyl pyrophosphate substrates, [^3H]farnesyl pyrophosphate and [^3H]geranylgeranyl pyrophosphate, were purchased from DuPont/New England Nuclear.
The reaction was allowed to proceed for 30 minutes at room temperature and then stopped with 0.5 ml of 4% sodium dodecyl sulfate (SDS) followed by 0.5 ml of cold 30% trichloracetic acid (TCA). Samples were allowed to sit on ice for 45 minutes and precipitated Ras protein was then collected on GF/C filter paper mats using a Brandel cell harvester. […] Percent inhibition was calculated relative to the DMSO vehicle control.

Experiment [2] relates to T24-BAG4 human bladder carcinoma cells expressing an activated H-ras gene. In words: Cell Mat assay: inhibition of tumor cell growth. It counts as cell-based. Particulars: for IC50: tIC50. Here is the method:
(§1) Normal human HEPM fibroblasts were planted in 3.5 cm dishes at a density of 5×10^4 cells/dish in 2 ml growth medium, and incubated for 3-5 d to achieve confluence. Medium was aspirated from each dish and the indicator tumor cells, T24-BAG4 human bladder carcinoma cells expressing an activated H-ras gene, were planted on top of the fibroblast monolayer at a density of 2×10^3cells/dish in 2 ml growth medium, and allowed to attach overnight. Compound-induced colony inhibition was assayed by addition of serial dilutions of compound directly to the growth medium 24 h after tumor cell planting, and incubating cells for an additional 14 d to allow colony formation. Assays were terminated by rinsing monolayers twice with phosphate-buffered saline (PBS), fixing the monolayers with a 1% glutaraldehyde solution in PBS, then visualizing tumor cells by staining with X-Gal (Price, J., et al., Lineage analysis in the vertebrate nervous system by retrovirus-mediated gene transfer, Proc. Natl. Acad. Sci.84, 156-160(1987)). […] Both IC50 values were obtained by determining the density of tumor cells and mat cells by visual inspection and enumeration of cells per colony and the number of colonies under the microscope. The therapeutic index of the compound was quantitatively expressed as the ratio of mIC50/tIC50, with values greater than one indicative of tumor target specificity.

In experiment [3] the test system is Normal human HEPM fibroblasts. In words: Cell Mat assay: inhibition of normal cell growth. It counts as cell-based. Particulars: mIC50, normal cell monolayer. As for the experimental part: as §1
[4] abbreviates: Ras-CVLS farnesylation, partially purified rat brain FPT, read-out: FPT IC50.

By IC50 is commonly meant the point on the concentration scale where inhibition reaches its midpoint. `COC(=O)N1CCC(=C2c3ccc(Cl)cc3CCc3cccnc32)CC1` [Compound 560.00]: in experiment [1] (setting [4]), the IC50 is 17.6 µM. For the compound `CCOC(=O)N1CCC(C2c3ccc(Cl)cc3C=Cc3c(Cl)ccnc32)CC1` (stereo not drawn) [Compound 636.00], the IC50 in experiment [1] (setting [4]) was 7.4 µM.

One may read the inhibition as the drop in the measured response relative to a control, in per cent. A lower inhibition goes with a weak effect. As to `CCOC(=O)N1CCC(=C2c3ccc(Cl)cc3CCc3c2ncc(Br)c3O)CC1` [Compound 660.00, Ethyl 4-[3-bromo-4-hydroxy-8-chloro-5,6-dihydro-11H-benzo[5,6]cyclohepta[1,2-b]pyridin-11-ylidene]-1-piperidine Carboxylate], in experiment [1] (@ 13 μM), the inhibition at 13 µM was found to be 22%. Consider `CCOC(=O)N1CCC(=C2c3ccc(Cl)cc3CCc3c(O)ccnc32)CC1` [Compound 646.00, Ethyl 4-[4-hydroxy-8-chloro-5,6-dihydro-11H-benzo[5,6]cyclohepta[1,2-b]pyridin-11-ylidene]-1-piperidine Carboxylate], for which at 15 µM the inhibition in experiment [1] (@ 15 μM) was 30%. For `O=C(Oc1cccnc1)N1CCC(=C2c3ccc(Cl)cc3CCc3c(On4nnc5ccccc54)ccnc32)CC1` [Compound 656.00, 3-pyridyl 4-[4-[(1H-benzotriazol-1-yl)oxy]-8-chloro-5,6-dihydro-11H-benzo[5,6]cyclohepta[1,2-b]pyridin-11-ylidene[-1-piperidine Carboxylate], the IC50 in experiment [1] (setting [4]) stood at 0.71 µM. Consider `CCOC(=O)N1CCC(=C2c3ccc(Br)cc3CCc3cccnc32)CC1` [Compound 540.00], for which the IC50 in experiment [1] (setting [4]) was 7 µM. With `CCOC(=O)N1CCN([C@H]2c3ccc(Cl)cc3CCc3cccnc32)CC1` [Compound 604.00, (−) Ethyl 4-(8-chloro-6,11-dihydro-11H-benzo[5,6]-cyclohepta[1,2-b]pyridin-11(S)-yl)-1-piperazinecarboxylate], the IC50 in experiment [1] (setting [4]) turned out to be 10.5 µM. For `CN1CCCC(OC(=O)N2CCN(C3c4ccc(Cl)cc4CCc4cccnc43)CC2)C1` (stereo not drawn) [Compound 804.00], the IC50 in experiment [1] (setting [4]) was 2.1 µM. Still for that read-out and setting: in the case of `CCOC(=O)N1CCC(F)(C2c3ccc(Cl)cc3CCc3cccnc32)CC1` (stereo not drawn) [Compound 520.00] it was 10.4 µM. On to `O=C(Oc1cccnc1)N1CCC(=C2c3ccc(Cl)cc3CCc3c(O)ccnc32)CC1` [Compound 648.00, 3-pyridyl 4-[4-hydroxy-8-chloro-5,6-dihydro-11H-benzo[5,6]cyclohepta[1,2-b]pyridin-11-ylidene]-1-piperidine Carboxylate], for which, in experiment [1] (setting [4]), the half-maximal inhibitory concentration (IC50) was determined as 6.7 µM.

With `CCOC(=O)N1CCC(=C2c3ccc(Cl)cc3CCc3cc(Br)cnc32)CC1` [Compound 642.00], the IC50 was 2.17 µM in experiment [1] (setting [4]); 50 µM in experiment [2] (Homo sapiens); over 50 µM in experiment [3] (Homo sapiens, Fibroblast). Moreover, the “selective antiproliferative activity against Ras-transformed cells versus normal cells” value (“selective antiproliferative activity” below) in experiment [2] is on record as “little”.

With `CCOC(=O)N1CCC(C2c3cc(CC)c(Cl)cc3C=Cc3cccnc32)CC1` (stereo not drawn) [Compound 622.00, 8-chloro-11-(1-ethoxycarbonyl-4-piperidinyl)-9-ethyl-11H-benzo[5,6]cyclohepta[1,2-b]pyridine], the IC50 in experiment [1] (setting [4]) is 10.5 µM.

As to `CCCCCCOC(=O)N1CCC(=C2c3ccc(Cl)cc3CCc3cccnc32)CC1` [Compound 590.00], the IC50 in experiment [1] (setting [4]) was determined as 80 µM. The same measure, in the same setting: then `O=C(OCc1ccccc1)N1CCC(=C2c3ccc(Cl)cc3CCc3cccnc32)CC1` [Compound 570.00], with 8 µM. As for `CN1CCCC(OC(=O)N2CCN(C3c4ccc(Cl)cc4CCc4cc(Br)cnc43)CC2)C1` (stereo not drawn) [Compound 805.00], in experiment [1] (setting [4]), the IC50 was determined as 0.3 µM. With `O=C(Oc1cccnc1)N1CCC(=C2c3ccc(Cl)cc3CCc3c2ncc(Br)c3O)CC1` [Compound 662.00, 3-pyridyl 4-[3-bromo-4-hydroxy-8-chloro-5,6-dihydro-11H-benzo[5,6]cyclohepta[1,2-b]pyridin-11-ylidene]-1-piperidine Carboxylate], the IC50 in experiment [1] (setting [4]) was found to be 3.8 µM. Consider `O=C(OCc1ccccc1)N1CCN(C2c3ccc(Cl)cc3CCc3cccnc32)CC1` (stereo not drawn) [Compound 614.00, Phenylmethyl 4-(8-chloro-6,11-dihydro-5H-benzo[5,6]-cyclohepta[1,2-b]pyridin-11-yl)-1-piperazinecarboxylate], for which the IC50 in experiment [1] (setting [4]) was over 20 µM; in experiment [2] (Homo sapiens) it was 50 µM; in experiment [3] (Homo sapiens, Fibroblast), over 50 µM. Besides, the “selective antiproliferative activity” value in experiment [2] is “little”. On to `CCOC(=O)N1CCC(=C2c3cc(Cl)c(Cl)cc3CCc3cccnc32)CC1` [Compound 555.00], for which the concentration for half-maximal inhibition (IC50) in experiment [1] (setting [4]) amounted to 37.8 µM. `O=C(Oc1ccccc1)N1CCN(C2c3ccc(Cl)cc3C=Cc3cccnc32)CC1` (stereo not drawn) [Example 32]: the IC50 was determined as 0.88 µM in experiment [1]; 25 µM in experiment [2] (Homo sapiens); 25 µM in experiment [3] (Homo sapiens, Fibroblast). Consider `CCOC(=O)N1CCC(=C2c3ccc(Cl)cc3CCc3cc(C)cnc32)CC1` [Compound 545.00], for which, in experiment [1] (setting [4]), the IC50 worked out at 7.1 µM. Same read-out and setting: then `CCOC(=O)N1CCN([C@@H]2c3ccc(Cl)cc3CCc3cccnc32)CC1` [Compound 602.00, (+) Ethyl 4-(8-chloro-6,11-dihydro-11H-benzo[5,6]-cyclohepta[1,2-b]pyridin-11(R)-yl)-1-piperazine Carboxylate], with 34.1 µM.

With `CCOC(=O)N1CCC(=C2c3ccc(Cl)cc3CCc3ccc[n+]([O-])c32)CC1` [Compound 515.00, Ethyl 4-(8-chloro-5,6-dihydro-11H-benzo[5,6]cyclohepta[1,2-B]pyridin-11-ylidene)-1-piperidinecarboxylate N-oxide], the figures for the IC50 in experiment [1] (setting [4]), in experiment [2] and in experiment [3] were 37.6 µM, 75 µM and over 100 µM, respectively. The “selective antiproliferative activity” value in experiment [2] is on record as “little”. For `CCOC(=O)N1CCC(=C2c3ccc(Cl)cc3C=Cc3cccnc32)CC1` [Compound 666.00], the IC50 in experiment [1] (setting [4]) was found to be 10.8 µM.

For the compound `CCOC(=O)N1CCC(=C2c3ccc(Cl)cc3CCc3cc(OC)cnc32)CC1` [Compound 658.00, 8-chloro-3-methoxy-11-(1-ethoxycarbonyl-4-piperidylidene)-6,11-dihydro-5H-benzo[5,6]-cyclohepta[1,2-b]pyridine], the IC50 in experiment [1] (setting [4]) worked out at 11.5 µM. As for `O=C(Oc1ccc[n+]([O-])c1)N1CCN(C2c3ccc(Cl)cc3CCc3cc(Br)cnc32)CC1` (stereo not drawn) [Compound 801.00], in experiment [1], 0.28 µM corresponded to half-maximal inhibition (IC50).

As to `O=C(Oc1cccnc1)N1CCC(=C2c3ccc(Cl)cc3CCc3c(Cl)ccnc32)CC1` [Compound 644.00, 3-pyridyl 4-(4,8-dichloro-5,6-dihydro-11H-benzo[5,6]cyclohepta[1,2-b]pyridin-11-ylidene)-1-piperidine Carboxylate], in experiment [1] (setting [4]), the IC50 stood at 1.03 µM. Compound `CN1CCC(OC(=O)N2CCN(C3c4ccc(Cl)cc4CCc4cccnc43)CC2)CC1` (stereo not drawn) [Compound 802.00] returned an FPT inhibition, second line of the FPT IC50 (μM) column in experiment [1] ((1.3), the values are: FPT inhibition at 1.3 µM) of 35%. In addition, the IC50 in experiment [1] (setting [4]) was over 1.3 µM. Regarding `O=C(Oc1cccnc1)N1CCC(=C2c3ccc(Cl)cc3C=Cc3cccnc32)CC1` [Compound 664.00], the IC50 in experiment [1] (setting [4]) was 1.46 µM.

Turning to `CCOC(=O)N1CCC(=C2c3ccc(Cl)cc3CCc3c(Cl)ccnc32)CC1` [Compound 596.00], in experiment [1] (setting [4]), the IC50 is 10.5 µM. For the compound `O=C(Oc1ccc[n+]([O-])c1)N1CCN(C2c3ccc(Cl)cc3CCc3cccnc32)CC1` (stereo not drawn) [Compound 800.00], in experiment [1] (setting [4]), the IC50 is 3.7 µM.

The values are drawn from patent US6492381B1, “Tricyclic carbamate compounds useful for inhibition of G-protein function and for treatment of proliferative diseases” (Schering Corp., priority 1993, dated 2002).
